According to patent US11459339B2, “Biaryl derivative, preparation method thereof and pharmaceutical application thereof” (Abbisko Therapeutics Co., Ltd., priority 2018, dated 2022):

Assays:
[1] = target: interaction between PD-1 and PD-L1 (Homo sapiens (Human), UniProt Q9NZQ7); test: PD1-PDL1 HTRF binding activity test (Cisbio PD-1/PD-L1 binding assay kit); details: read-out: PD1-PDL1 HTRF Binding Activity IC50
Method: A. PD1-PDL1 HTRF Binding Activity Test
The effect of compounds and positive compounds of the examples of the present invention on the interaction between PD-1 and PD-L1 was determined by the PD-1/PD-L1 binding assay kit from Cisbio (#64ICP01PEG or 64ICP01PEH). The detailed experimental process was as follows:
1. Pre-diluted compound solution, 4 μL of Tag1-PD-L1 and 4 μL of Tag2-PD1 were added to each well of a 384-well plate;
3. After incubated for 2 hrs at room temperature or overnight at 4° C., plates were read on Envision of Pelkin Elmer; and readings at 665 nm and 620 nm were recorded, and the ratio of the two readings was taken as a reading for each well;
4. The reading of each well after compound treatment was compared with the reading of DMSO treated wells to obtain the percent inhibition of the compound; and
5. IC50 values of compounds and positive compounds of the examples of the present invention were determined by non-linear regression analysis of percent inhibition at different compound concentrations.

[2] = target: interaction between PD-1 and PD-L1 expressed on cell surfaces (Homo sapiens (Human), UniProt Q9NZQ7); test: Jurkat reporter gene cellular assay (Jurkat/NF-κB-luc/PD1 cells cocultured with Raji-PD-L1 cells, OKT-3 stimulation); format: cell-based; details: NF-κB-luc reporter activation fold, 6 hrs; read-out: Cell Activity EC50
Chain of interaction between PD-1 and PD-L1 expressed on cell surfaces (Q9NZQ7 19-290): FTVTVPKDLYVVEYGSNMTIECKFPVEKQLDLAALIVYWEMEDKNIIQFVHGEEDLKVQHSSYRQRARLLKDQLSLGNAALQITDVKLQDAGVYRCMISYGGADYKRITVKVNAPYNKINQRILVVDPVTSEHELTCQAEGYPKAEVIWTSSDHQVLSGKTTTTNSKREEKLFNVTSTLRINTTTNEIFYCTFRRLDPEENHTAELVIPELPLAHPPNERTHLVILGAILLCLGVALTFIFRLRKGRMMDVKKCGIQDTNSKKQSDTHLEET
Method: B. Jurkat Reporter Gene Cellular Assay
The effect of compounds of the examples of the present invention and positive compounds on the interaction between PD-1 and PD-L1 expressed on cell surfaces, and the related influence on T cell functions, were determined by a Jurkat reporter gene cellular assay.
Briefly, the reporter gene plasmid of NF-κB-luc and the plasmid of human PD-1 were transfected into Jurkat cells to establish a stably transfected cell line capable of stably expressing both PD-1 and NF-κB-Luc reporter genes; the expression level of PD-1 on the cell surface was confirmed by flow cytometry: and the expression of the reporter gene was confirmed via the response of the reporter gene stimulated by OKT-3 and Raiji cells.
In addition, the plasmid of human PD-L1 was transfected into Raji cells to obtain a cell line capable of stably expressing PD-L1. Jurkat/NF-κB-luc/PD1 cells and Raji-PD-L1 cells were then cocultured and stimulated with OKT-3. On this basis, the compounds were added, and the enhancement of the signal pathway of T cell activation by the inhibitory effect of the compounds on the interaction between PD-1 and PD-L1 was evaluated by readings of reporter gene responses. The specific experimental process was as follows:
2. 20 μL of Raji-PD-L1 cell suspension was added to each well with 5*10^4 cells for each well, and was incubated in an incubator for 20 min;
3. 20 μL of Jurkat/NF-κb-luc/PD-1 cell suspension was added to each well with 5*10^4 cells for each well, and well mixed, and 6 hrs later, Bright-glo (Promega, E2620) was applied and plates were read on Envision;
4. the reading of each well treated with the compound was compared with the reading of each well treated with DMSO to obtain the activation fold of the compound; and
5. EC50 values of compounds and positive compounds of the examples of the present invention were determined by non-linear regression analysis of activation folds at different compound concentrations.

Chain of interaction between PD-1 and PD-L1 (Q9NZQ7 19-238): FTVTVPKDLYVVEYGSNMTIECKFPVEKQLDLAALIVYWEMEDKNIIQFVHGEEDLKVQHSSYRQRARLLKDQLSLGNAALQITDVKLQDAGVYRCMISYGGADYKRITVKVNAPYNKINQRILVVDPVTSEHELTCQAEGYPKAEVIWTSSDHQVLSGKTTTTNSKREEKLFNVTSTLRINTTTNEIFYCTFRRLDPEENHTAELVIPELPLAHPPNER

IC50 [1] | EC50 [2] | Structure (SMILES)
0.33 nM | 229 nM | COc1cc(C(=O)Nc2cccc(-c3cccc(NC(=O)c4cc(OC)c(CN5CC[C@@H](OC)C5)cn4)c3C)c2C)ncc1CN1CC[C@@H](OC)C1 [Example 50, N,N'-(2,2′-dimethyl-[1,1′-biphenyl]-3,3′-diyl)bis(4-methoxy-5-(((R)-3-methoxypyrrolidin-1-yl)methyl)picolinamide)]
0.22 nM | 288 nM | COc1cc(C(=O)Nc2cccc(-c3cccc(NC(=O)c4cc(OC)c(CN5CC(OC)C5)cn4)c3C)c2C)ncc1CN1CC(OC)C1 [Example 51, N,N'-(2,2′-dimethyl-[1,1′-biphenyl]-3,3′-diyl)bis(4-methoxy-5-((3-methoxyazetidin-1-yl)methyl)picolinamide)]
0.4 nM | 508 nM | COc1cc(C(=O)Nc2cccc(-c3cccc(NC(=O)c4cc(OC)c(CN5CC(C)(OC)C5)cn4)c3C)c2C)ncc1CN1CC(C)(OC)C1 [Example 52, N,N'-(2,2′-dimethyl-[1,1′-biphenyl]-3,3′-diyl)bis(4-methoxy-5-((3-methoxy-3-methylazetidin-1-yl)methyl)picolinamide)]
0.15 nM | 52 nM | COc1cc(C(=O)Nc2cccc(-c3cccc(NC(=O)c4cc(OC)c(CN[C@H]5C[C@@H](O)C5)cn4)c3C)c2C)ncc1CN[C@H]1C[C@@H](O)C1 [Example 53, N,N'-(2,2′-dimethyl-[1,1′-biphenyl]-3,3′-diyl)bis(5-((((1s,3s)-3-hydroxycyclobutyl)amino)methyl)-4-methoxypicolinamide)]
0.21 nM | 4770 nM | COc1cc(C(=O)Nc2cccc(-c3cccc(NC(=O)c4cc(OC)c(CNC5COC5)cn4)c3C)c2C)ncc1CNC1COC1 [Example 54, N,N'-(2,2′-dimethyl-[1,1′-biphenyl]-3,3′-diyl)bis(4-methoxy-5-((oxetan-3-ylamino)methyl)picolinamide)]
0.4 nM | 82 nM | COc1cc(C(=O)Nc2cccc(-c3cccc(NC(=O)c4cc(OC)c(CN[C@H]5CCOC5)cn4)c3C)c2C)ncc1CN[C@H]1CCOC1 [Example 55, N,N'-(2,2′-dimethyl-[1,1′-biphenyl]-3,3′-diyl)bis(4-methoxy-5-((((S)-tetrahydrofuran-3-yl)amino)methyl)picolinamide)]
0.64 nM | 172 nM | COc1cc(C(=O)Nc2cccc(-c3cccc(NC(=O)c4cc(OC)c(CN[C@@H]5CCOC5)cn4)c3C)c2C)ncc1CN[C@@H]1CCOC1 [Example 56, N,N'-(2,2′-dimethyl-[1,1′-biphenyl]-3,3′-diyl)bis(4-methoxy-5-((((R)-tetrahydrofuran-3-yl)amino)methyl)picolinamide)]
0.22 nM | 625 nM | COc1cc(C(=O)Nc2cccc(-c3cccc(NC(=O)c4cc(OC)c(CN5CC6(COC6)C5)cn4)c3C)c2C)ncc1CN1CC2(COC2)C1 [Example 58, N,N'-(2,2′-dimethyl-[1,1′-biphenyl]-3,3′-diyl)bis(5-((2-oxa-6-azaspiro[3.3]heptan-6-yl)methyl)-4-methoxypicolinamide)]
0.31 nM | 70 nM | COc1cc(C(=O)Nc2cccc(-c3cccc(NC(=O)c4cc(OC)c(CNC[C@@H](O)CC(=O)O)cn4)c3C)c2C)ncc1CNC[C@@H](O)CC(=O)O [Example 59]
0.034 nM | 580 nM | COc1cc(C(=O)Nc2cccc(-c3cccc(NC(=O)c4cc(OC)c(CN[C@H]5C[C@@H](C(=O)O)C5)cn4)c3C)c2C)ncc1CN[C@H]1C[C@@H](C(=O)O)C1 [Example 60, (1s,1′s,3s,3′s)-3,3′-((((((2,2′-dimethyl-[1,1′-biphenyl]-3,3′-diyl)bis(azanediyl))bis(carbonyl))bis(4-methoxypyridine-6,3-diyl))bis(methylene))bis(azanediyl))bis (cyclobutane-1-carboxylic acid)]
0.18 nM | 319 nM | COc1cc(C(=O)Nc2cccc(-c3cccc(NC(=O)c4cc(OC)c(CN5CCC[C@H]5C(=O)O)cn4)c3C)c2C)ncc1CN1CCC[C@H]1C(=O)O [Example 61, (2′S)-(((((2,2′-dimethyl-[1,1′-biphenyl]-3,3′-diyl)bis(azanediyl))bis(carbonyl))bis(4-methoxypyridine-6,3-diyl))bis(methylene))di-L-proline]
0.25 nM | 639 nM | COc1cc(C(=O)Nc2cccc(-c3cccc(NC(=O)c4cc(OC)c(CN5C[C@H](O)C[C@H]5C(=O)O)cn4)c3C)c2C)ncc1CN1C[C@H](O)C[C@H]1C(=O)O [Example 62, (2S,2′S,4R,4′R)-1,1′-(((((2,2′-dimethyl-[1,1′-biphenyl]-3,3′-diyl)bis(azanediyl))bis(carbonyl))bis (4-methoxypyridine-6,3-diyl))bis (methylene))bis(4-hydroxypyrrolidine-2-carboxylic acid)]
0.25 nM | 4600 nM | COc1cc(C(=O)Nc2cccc(-c3cccc(NC(=O)c4cc(OC)c(CN5CCOC[C@H]5C(=O)O)cn4)c3C)c2C)ncc1CN1CCOC[C@H]1C(=O)O [Example 63, (3S,3′S)-4,4′(((((2,2′-dimethyl-[1,1′-biphenyl]-3-3′-diyl)bis(azanediyl))bis (carbonyl))bis(4-methoxypyridine-6,3-diyl))bis(methylene))bis(morpholine-3-carboxylic acid)]
0.64 nM | 691 nM | COC(=O)CNCc1cnc(C(=O)Nc2cccc(-c3cccc(NC(=O)c4cc(OC)c(CNCC(=O)OC)cn4)c3C)c2C)cc1OC [Example 66]
0.51 nM | 349 nM | COc1cc(C(=O)Nc2cccc(-c3cccc(NC(=O)c4cc(OC)c(CNCC(=O)O)cn4)c3C)c2C)ncc1CNCC(=O)O [Example 67]
0.31 nM | 261 nM | COc1cc(C(=O)Nc2cccc(-c3cccc(NC(=O)c4cc(OC)c(CN[C@H]5CCOC5=O)cn4)c3C)c2C)ncc1CN[C@H]1CCOC1=O [Example 68]
0.39 nM | 105 nM | COc1cc(C(=O)Nc2cccc(-c3cccc(NC(=O)c4cc(OC)c(CN[C@@H](CCO)C(=O)O)cn4)c3C)c2C)ncc1CN[C@@H](CCO)C(=O)O [Example 69]
0.54 nM | 2200 nM | COc1cc(C(=O)Nc2cccc(-c3cccc(NC(=O)c4cc(OC)c(CN[C@@H]5CCOC5=O)cn4)c3C)c2C)ncc1CN[C@@H]1CCOC1=O [Example 70, N,N'-(2,2′-dimethyl-[1,1′-biphenyl]-3,3′-diyl)bis(4-methoxy-5-((((R)-2-oxotetrahydrofuran-3-yl)amino)methyl)picolinamide)]
0.33 nM | 756 nM | COc1cc(C(=O)Nc2cccc(-c3cccc(NC(=O)c4cc(OC)c(CN[C@H](CCO)C(=O)O)cn4)c3C)c2C)ncc1CN[C@H](CCO)C(=O)O [Example 71]
0.48 nM | 1560 nM | COc1cc(C(=O)Nc2cccc(-c3cccc(NC(=O)c4cc(OC)c(CN[C@@H]5COC(=O)C5)cn4)c3C)c2C)ncc1CN[C@@H]1COC(=O)C1 [Example 72, N,N'-(2,2′-dimethyl-[1,1′-biphenyl]-3,3′-diyl)bis(4-methoxy-5-((((S)-5-oxotetrahydrofuran-3-yl)amino)methyl)picolinamide)]
0.29 nM | 812 nM | COc1cc(C(=O)Nc2cccc(-c3cccc(NC(=O)c4cc(OC)c(CN[C@H](CO)CC(=O)O)cn4)c3C)c2C)ncc1CN[C@H](CO)CC(=O)O [Example 73, (3S,3′S)-3,3′-((((((2,2′-dimethyl-[1,1′-biphenyl]-3,3′-diyl)bis(azanediyl))bis(carbonyl))bis (4-methoxypyridine-6,3-diyl))bis (methylene))bis(azanediyl))bis(4-hydroxybutanoic acid)]
0.14 nM | 303 nM | COc1cc(C(=O)Nc2cccc(-c3cccc(NC(=O)c4cc(OC)c(CN[C@H]5COC(=O)C5)cn4)c3C)c2C)ncc1CN[C@H]1COC(=O)C1 [Example 74]
0.36 nM | 782 nM | COc1cc(C(=O)Nc2cccc(-c3cccc(NC(=O)c4cc(OC)c(CN[C@@H](CO)CC(=O)O)cn4)c3C)c2C)ncc1CN[C@@H](CO)CC(=O)O [Example 75]
